The values below come from patent US11033539B2, “Compounds of formulas (VII), (VIII), (IX), (XI), (XII), (XIII), and (XIV) as muscarinic receptor 4(M4) antagonists for treating neurological diseases” (Neurocrine Biosciences, Inc., priority 2015, dated 2021).

The target of this assay is human M4 receptor (Homo sapiens (Human), UniProt P08173). As to the kind of experiment: Radioligand (tritiated N-methylscopolamine) binding assay, M4. Particulars: Ki against the M4 receptor; membranes from CHO cells expressing human M4; tritiated N-methylscopolamine 1.5 nM; read-out: Ki. In outline: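 Ki from displacement of 1.5 nM [3H]N-methylscopolamine on membranes of CHO cells expressing each human receptor. Twelve compound concentrations (10 μM to […]), 90 min at 37° C in 50 mM HEPES, 100 mM NaCl, 5 mM MgCl2, 1 mM EDTA, pH 7.4. Bound ligand was captured by PEI-treated glass-fiber filtration and counted.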
Chain of human M4 receptor (P08173 whole entry): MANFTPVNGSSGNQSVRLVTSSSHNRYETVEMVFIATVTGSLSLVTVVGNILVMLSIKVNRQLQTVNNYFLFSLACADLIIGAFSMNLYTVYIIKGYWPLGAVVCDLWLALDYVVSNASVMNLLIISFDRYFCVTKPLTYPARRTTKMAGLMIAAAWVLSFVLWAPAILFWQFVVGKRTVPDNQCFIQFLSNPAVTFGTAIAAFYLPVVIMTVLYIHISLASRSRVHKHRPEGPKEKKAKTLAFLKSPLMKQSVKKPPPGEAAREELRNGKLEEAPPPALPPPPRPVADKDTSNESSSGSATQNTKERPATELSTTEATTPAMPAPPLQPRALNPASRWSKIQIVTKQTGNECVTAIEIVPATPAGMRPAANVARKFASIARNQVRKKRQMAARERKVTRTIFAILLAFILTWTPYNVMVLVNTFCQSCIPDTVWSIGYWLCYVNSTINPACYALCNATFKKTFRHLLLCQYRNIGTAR

With `O=C(NCCC1CCN(Cc2ccccc2)CC1)N1CCN(c2ncc(C(F)(F)F)cc2Cl)CC1` [8-15, N-[2-(1-benzylpiperidin-4-yl)ethyl]-4-[3-chloro-5-(trifluoromethyl)pyridin-2-yl]piperazine-1-carboxamide], the Ki – broadly, the dissociation constant of the complex between target and ligand, obtained from inhibition or displacement – lay in the range of 10 to 100 nM.
For “N-{2-[1-(3-methylbutyl)piperidin-4-yl]ethyl}-1-[4-(trifluoromethoxy)phenyl]piperidine-4-carboxamide [11-19]” the value was 100 to 1000 nM; for `C[C@@H]1CN(c2ncc(C(F)(F)F)cn2)CCN1C(=O)NCCC1CCN(Cc2cccnc2)CC1` [6-32, (2R)-2-methyl-N-{2-[1-(pyridin-3-ylmethyl)piperidin-4-yl]ethyl}-4-[5-(trifluoromethyl)pyrimidin-2-yl]piperazine-1-carboxamide], 10 to 100 nM.
In the case of `Cc1nc(CN2CCC(CCNC(=O)N3CCN(c4cc(F)c(F)c(F)c4)C[C@H]3C)CC2)cs1` [6-12, (2R)-2-methyl-N-(2-{1-[(2-methyl-1,3-thiazol-4-yl)methyl]piperidin-4-yl}ethyl)-4-(3,4,5-trifluorophenyl)piperazine-1-carboxamide] it was 10 to 100 nM; in that of `N#Cc1ccc(N2CCC(C(=O)NCCC3CCN(Cc4ccccc4)CC3)CC2)cc1` [9-29, N-[2-(1-benzylpiperidin-4-yl)ethyl]-1-(4-cyanophenyl)piperidine-4-carboxamide], 10 to 100 nM; in that of `O=C(NCCC1CCN(Cc2ccccc2)CC1)[C@@H]1CCN(c2cccc(OC(F)(F)F)c2)C1` [10-49, (3R)-N-[2-(1-benzylpiperidin-4-yl)ethyl]-1-[3-(trifluoromethoxy)phenyl]pyrrolidine-3-carboxamide], 100 to 1000 nM.
Turning to `C[C@@H]1CN(c2cnc(C(F)(F)F)nc2)C[C@H](C)N1C(=O)NCCC1CCN(Cc2ccccc2)CC1` [22-1, (2R,6S)—N-[2-(1-benzylpiperidin-4-yl)ethyl]-2,6-dimethyl-4-[2-(trifluoromethyl)pyrimidin-5-yl]piperazine-1-carboxamide], the Ki lay in the range of 10 to 100 nM.
In the case of `C[C@@H]1CN(c2ccc(C#N)c(N(C)C)c2)CCN1C(=O)NCCC1CCN(Cc2ccccc2)CC1` [22-26] it was 10 to 100 nM.
Turning to `CC1(C(=O)NCCC2CCN(Cc3ccccc3)CC2)CCN(c2cccc(OC(F)(F)F)c2)CC1` [10-25, N-[2-(1-benzylpiperidin-4-yl)ethyl]-4-methyl-1-[3-(trifluoromethoxy)phenyl]piperidine-4-carboxamide], the Ki lay in the range of 10 to 100 nM.
As to `C[C@@H]1CN(c2ccc(OC(F)(F)F)c(C#N)c2)CCN1C(=O)NCCN1CCN(Cc2ccccc2)CC1` [7-3, (2R)-N-[2-(4-benzylpiperazin-1-yl)ethyl]-4-[3-cyano-4-(trifluoromethoxy)phenyl]-2-methylpiperazine-1-carboxamide], the Ki lay within 10 to 100 nM.
For `C[C@@H]1CN(c2ccc(C#N)cn2)CCN1C(=O)NCCC1CCN(Cc2ccccc2)CC1` [4-31, (2R)-N-[2-(1-benzylpiperidin-4-yl)ethyl]-4-(5-cyanopyridin-2-yl)-2-methylpiperazine-1-carboxamide], the Ki is 10 to 100 nM.
`O=C(NCCC1CCN(Cc2ccccc2)CC1)N1CCC(c2cccc(F)c2)CC1` [8-26, N-[2-(1-benzylpiperidin-4-yl)ethyl]-4-(3-fluorophenyl)piperidine-1-carboxamide]: the Ki lay in the range of 100 to 1000 nM.
Turning to `O=C(NCCC1CCN(Cc2cccc3c2OCCO3)CC1)c1ccc(OCc2ccccc2)cc1` [11-7, 4-(benzyloxy)-N-{2-[1-(2,3-dihydro-1,4-benzodioxin-5-ylmethyl)piperidin-4-yl]ethyl}benzamide], the Ki was 10 to 100 nM.
In the case of `O=C(NCCN1CCC(O)(Cc2ccccc2)CC1)c1ccn2cc(-c3ccc(OC(F)(F)F)cc3)nc2c1` [9-19, N-[2-(4-benzyl-4-hydroxypiperidin-1-yl)ethyl]-2-[4-(trifluoromethoxy)phenyl]imidazo[1,2-a]pyridine-7-carboxamide], the inhibition constant Ki lay in the range of 100 to 1000 nM.
As for `Cc1cc(CN2CCC(CCNC(=O)N3[C@H](C)CN(c4ncc(C#N)cn4)C[C@@H]3C)CC2)ccc1O` [6-57, (2R,6S)-4-(5-cyanopyrimidin-2-yl)-N-(2-{1-[(4-hydroxy-3-methylphenyl)methyl]piperidin-4-yl}ethyl)-2,6-dimethylpiperazine-1-carboxamide], the Ki fell in the range of 10 to 100 nM.
With `Cc1c(C(=O)NCCC2CCN(Cc3ccccc3)CC2)cnc2cc(-c3cccc(F)c3F)nn12` [18-7], the Ki is 10 to 100 nM.
Turning to `C[C@@H]1CN(c2ncccn2)CCN1C(=O)NCCC1CCN(Cc2ccccc2)CC1` [4-64, (2R)-N-[2-(1-benzylpiperidin-4-yl)ethyl]-2-methyl-4-(pyrimidin-2-yl)piperazine-1-carboxamide], the Ki fell in the range of 100 to 1000 nM.
For `O=C(NCCC1CCN(Cc2ccccc2)CC1)C1CCN(c2ccc(OC(F)F)cc2)CC1` [10-76, N-[2-(1-benzylpiperidin-4-yl)ethyl]-1-[4-(difluoromethoxy)phenyl]piperidine-4-carboxamide], the Ki is 10 to 100 nM.
Take `C[C@@H]1CN(c2cc(F)c(F)c(F)c2)CCN1C(=O)NCCC1CCN(Cc2ccc(C(N)=O)cc2)CC1` [6-16, (2R)-N-(2-{1-[(4-carbamoylphenyl)methyl]piperidin-4-yl}ethyl)-2-methyl-4-(3,4,5-trifluorophenyl)piperazine-1-carboxamide]: the Ki was 10 to 100 nM.
For the molecule `N#Cc1cncc(N2CCC(C(=O)NCCC3CCN(Cc4ccccc4)CC3)CC2)c1` [10-15, N-[2-(1-benzylpiperidin-4-yl)ethyl]-1-(5-cyanopyridin-3-yl)piperidine-4-carboxamide], the Ki lay in the range of 100 to 1000 nM.
For the molecule `O=C(NCCC1CCN(Cc2ccccc2)CC1)C1CCN(c2nccc(C(F)(F)F)n2)CC1` [10-30, N-[2-(1-benzylpiperidin-4-yl)ethyl]-1-[4-(trifluoromethyl)pyrimidin-2-yl]piperidine-4-carboxamide], the Ki lay within 10 to 100 nM.
Take `N#Cc1ccc(N2CCC(C(=O)NCCC3CCN(Cc4cccc5c4OCCO5)CC3)CC2)nc1` [11-16, 1-(5-cyanopyridin-2-yl)-N-{2-[1-(2,3-dihydro-1,4-benzodioxin-5-ylmethyl)piperidin-4-yl]ethyl}piperidine-4-carboxamide]: the Ki fell in the range of 100 to 1000 nM.
For `Cc1nc(-c2ccc(F)nc2)sc1C(=O)NCCC1CCN(Cc2ccccc2)CC1` [9-57, N-[2-(1-benzylpiperidin-4-yl)ethyl]-2-(6-fluoropyridin-3-yl)-4-methyl-1,3-thiazole-5-carboxamide] the value was 100 to 1000 nM; for `C[C@@H]1CN(c2ncc(C(=O)N3CCCC3)cn2)C[C@H](C)N1C(=O)NCCC1CCN(Cc2ccccc2)CC1` [27-2], 100 to 1000 nM; for `C[C@@H]1CN(c2ccc(F)c(C#N)c2)CCN1C(=O)N(C)C[C@@H](O)C1CCN(Cc2ccccc2)CC1` [3-3, (2R)-N-[(2S)-2-(1-benzylpiperidin-4-yl)-2-hydroxyethyl]-4-(3-cyano-4-fluorophenyl)-N,2-dimethylpiperazine-1-carboxamide], 100 to 1000 nM.
`C[C@@H]1CN(c2cc(F)c(F)c(F)c2)CCN1C(=O)NCCC1CCN(Cc2cccc(OC(F)(F)F)c2)CC1` [6-20, (2R)-2-methyl-N-[2-(1-{[3-(trifluoromethoxy)phenyl]methyl}piperidin-4-yl)ethyl]-4-(3,4,5-trifluorophenyl)piperazine-1-carboxamide]: the Ki lay in the range of 100 to 1000 nM.
In the case of `N#Cc1ccccc1N1CCC(C(=O)NCCC2CCN(Cc3ccccc3)CC2)CC1` [10-67, N-[2-(1-benzylpiperidin-4-yl)ethyl]-1-(2-cyanophenyl)piperidine-4-carboxamide], the Ki lay within 100 to 1000 nM.
As to `Cc1nnc(C(c2ccccc2)N2CCC(CCNC(=O)N3CCN(c4cc(F)c(F)c(F)c4)C[C@H]3C)CC2)o1` (stereo partly drawn) [6-19, (2R)-2-methyl-N-(2-{1-[(5-methyl-1,3,4-oxadiazol-2-yl)(phenyl)methyl]piperidin-4-yl}ethyl)-4-(3,4,5-trifluorophenyl)piperazine-1-carboxamide], the Ki was 100 to 1000 nM.
For `C[C@@H]1CN(c2cc(F)c(F)c(F)c2)CCN1C(=O)NCCC1CCN(Cc2cc(F)ccc2F)CC1` [6-25, (2R)-N-(2-{1-[(2,5-difluorophenyl)methyl]piperidin-4-yl}ethyl)-2-methyl-4-(3,4,5-trifluorophenyl)piperazine-1-carboxamide] the value was 100 to 1000 nM; for `C[C@@H]1CN(c2cc(F)c(F)c(F)c2)CCN1C(=O)NCCC1CCN(Cc2ccc(F)c(F)c2F)CC1` [6-22, (2R)-2-methyl-4-(3,4,5-trifluorophenyl)-N-(2-{1-[(2,3,4-trifluorophenyl)methyl]piperidin-4-yl}ethyl)piperazine-1-carboxamide], 100 to 1000 nM; for `COc1ccccc1C1(O)CCN(C(=O)NCCC2CCN(Cc3ccccc3)CC2)CC1` [8-42, N-[2-(1-benzylpiperidin-4-yl)ethyl]-4-hydroxy-4-(2-methoxyphenyl)piperidine-1-carboxamide], 100 to 1000 nM.
In the case of `C[C@@H]1CN(c2cc(F)c(F)c(F)c2)CCN1C(=O)NCCN1CCN(Cc2ccccc2)CC1` [7-6, (2R)-N-[2-(4-benzylpiperazin-1-yl)ethyl]-2-methyl-4-(3,4,5-trifluorophenyl)piperazine-1-carboxamide], the Ki was in the range of 100 to 1000 nM.
`O=C(NCCC1CCN(Cc2ccccc2)CC1)N1CCC(c2ccc(F)cc2)CC1` [8-20, N-[2-(1-benzylpiperidin-4-yl)ethyl]-4-(4-fluorophenyl)piperidine-1-carboxamide]: the Ki was in the range of 100 to 1000 nM.
On to `C[C@@H]1CN(c2ncc(C#N)cn2)C[C@H](C)N1C(=O)NCCC1CCN(Cc2cccnc2)CC1` [6-61, (2R,6S)-4-(5-cyanopyrimidin-2-yl)-2,6-dimethyl-N-{2-[1-(pyridin-3-ylmethyl)piperidin-4-yl]ethyl}piperazine-1-carboxamide], for which the Ki was in the range of 100 to 1000 nM.
For `CN(CCNC(=O)c1ccc(-c2ccc(OC(F)(F)F)cc2)cc1)[C@@H]1CCN(Cc2ccccc2)C1` [9-39, N-(2-{[(3R)-1-benzylpyrrolidin-3-yl](methyl)amino}ethyl)-4-[4-(trifluoromethoxy)phenyl]benzamide], the inhibition constant (Ki) is 10 to 100 nM.
